Earlier results on one molecule are cited in patent US6506938B1, “Process for the purifying of iopamidol” (Bracco International B.V., priority 1993, dated 2003).

For series [1] the following is noted: British patent no. 1,472,050.
For series [2] the following is noted: Boll. Chim. Farm., 120, 639, (1981).

Where two headings read alike, the source gives them in different places.

Consider `C[C@H](O)C(=O)Nc1c(I)c(C(=O)NC(CO)CO)c(I)c(C(=O)NC(CO)CO)c1I` [Iopamidol, L-5-α-hydroxypropionylamino-2,4,6-triiodo-isophthalic acid bis-(1,3-dihydroxyisopropylamide)], for which the solubility in ethanol entry in series [1] (ethanol, room temperature) is reported as “about 10%”; in series [2] (ethanol), “practically insoluble”. For the same molecule, the solubility in methanol entry is “practically unlimited solubility” in series [1] (methanol) and “only slightly soluble” in series [2] (methanol). Further, the solubility in water result is recorded as “dissolves very easily” in series [1] (water) and “very soluble” in series [2] (water). Also, the solubility in benzene entry in series [2] (benzene) is on record as “practically insoluble”. Besides, the solubility in chloroform entry in series [2] (chloroform) is listed as “practically insoluble”. The solubility in diethylether result in series [2] (diethylether) is recorded as “practically insoluble”.
